Results taken from patent US11230525B2, “Organic sulfur compound, method for preparing same, and pharmaceutical composition for preventing or treating cancer or an inflammatory disease, containing same as active ingredient” (SOOKMYUNG WOMENS UNIVERSITY INDUSTRY-ACADEMIC COOPERATION …, priority 2016, dated 2022).

Columns and labels:
[1] = molecular target: T1, HDAC 8 (Homo sapiens, UniProt Q9BY41); test: HDAC enzyme fluorescence assay, HDAC 8; type: biochemical; parameters: Inhibitory activity (%) HDAC 8: concentration or dose not given beside the values; settings: for Inhibitory activity (%) HDAC 8: (HDAC inhibitory activity of example compound/HDAC inhibitory activity of SAHA) × 100
T1 sequence (Q9BY41 1-377): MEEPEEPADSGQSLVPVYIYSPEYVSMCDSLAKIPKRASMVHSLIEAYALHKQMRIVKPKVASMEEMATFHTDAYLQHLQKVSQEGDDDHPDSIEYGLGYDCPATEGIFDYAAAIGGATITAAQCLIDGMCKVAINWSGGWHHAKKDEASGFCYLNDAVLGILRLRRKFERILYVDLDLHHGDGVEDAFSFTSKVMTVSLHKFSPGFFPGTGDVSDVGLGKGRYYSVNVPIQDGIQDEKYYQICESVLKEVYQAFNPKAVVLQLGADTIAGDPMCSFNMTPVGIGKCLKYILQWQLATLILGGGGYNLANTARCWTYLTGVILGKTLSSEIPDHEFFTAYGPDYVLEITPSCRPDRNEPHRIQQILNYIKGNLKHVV
Procedure: (§1) Particularly, HDAC enzyme analysis was performed based on a uniform fluorescence emission assay. First, the compounds of examples of the present invention or comparative example 1 were diluted at different concentrations, which were treated to the analysis buffer containing 25 mM HEPES (pH 8.0), 137 mM NaCl, 1 mM MgCl2 and 2.7 mM KCL, followed by culture of the recombinant HDAC enzyme. 10 minutes later, Boc-Lys(acetyl)-AMC, the fluorescence inducing substrate, was added thereto, followed by further culture at 37° C. At this time, the concentration of the fluorescence inducing substrate and the culture time were adjusted according to the isotypes of the HDAC enzyme. The reaction was terminated by treating trypsin at room temperature for 20 minutes. The fluorescence intensity was measured using a fluorescence analyzer at an excitation wavelength of 380 nm and an emission wavelength of 460 nm, respectively. The inhibition rate was calculated from the measured fluorescence intensity of each well with comparing to that of the control well. IC50 of the compound was calculated by analyzing the dose-reaction inhibition curve.
The HDAC 8 inhibitory activity was presented as percentage of relative activity by the inhibitory activity of SAHA (Vorinostat) used as a reference compound.

[2] = tested on: PC-3 cells, human prostate cancer cells; test: Anticancer activity in prostate cancer xenograft model; type: in vivo, mice; settings: 50 mg/kg (SAHA 100 mg/kg) once a day for 16 days, compared with the non-treated group
Procedure: Particularly, 9×10^6 PC-3 cells, human prostate cancer cells, were inoculated subcutaneously to the right side of female BALB/c nu/nu mice at 5 weeks of age (Nara Biotech, Seoul, Republic of Korea).
(§2) When the tumor size reached 40-60 mm^3, the mice were randomly grouped (4 mice per group), which were the non-treated group (10% dimethylacetamide, 10% tween 80 and 80% distilled water), the groups treated with the compounds of comparative examples 1 and 2 (Ajoene, 50 mg/kg), the groups treated with the compounds of examples 18 and 32 (50 mg/kg), and the group treated with the positive control SAHA (Vorinostat, 100 mg/kg). The treatment was performed once a day for 16 days in total. During the treatment, the tumor size was measured with a vernier caliper, followed by evaluation according to the following formula: length (mm)×width (mm)×height (mm)/2. The weights were measured regularly.
(§3) Upon completion of the treatment (16 days later), the mice were sacrificed and the tumor weights were measured. All the experiments were performed according to the experiment protocol approved by Institutional Animal care and Use Committee (IACUC), Korea Research Institute of Bioscience and Biotechnology (KRIBB).

[3] = Body weight of mice in prostate cancer xenograft model; type: in vivo; settings: 50 mg/kg (SAHA 100 mg/kg) once a day for 16 days
Procedure: as §2, §3

[4] = tested on: gastric cancer cell line (NUGC-3); test: Cancer proliferation inhibitory activity (SRB, GI50), NUGC-3; type: cell-based; settings: Homo sapiens, 48 hours
Source text: (§4) Particularly, the cancer proliferation inhibitory activity of the compounds of comparative examples (Ajoene and the compounds isosteric to Ajoene wherein R1 is allyl or benzyl) and the compounds of examples of the present invention (the compounds not isosteric to Ajoene wherein R^1 is phenyl) was investigated in human cancer cell lines (renal cancer cell line (ACHN), breast cancer cell line (MDA-MB-231), colorectal cancer cell line (HCT-15), prostate cancer cell line (PC-3), gastric cancer cell line (NUGC-3) and lung cancer cell line (NCl-H23)).
(§5) At this time, the cancer cell lines (renal cancer cell line (ACHN), breast cancer cell line (MDA-MB-231), colorectal cancer cell line (HCT-15), prostate cancer cell line (PC-3), gastric cancer cell line (NUGC-3) and lung cancer cell line (NCl-H23)) above were purchased from American Type Culture Collection (Manassas, Va., USA). Cells were cultured in RPMI 1640 supplemented with 10% fetal bovine serum, which were maintained 37° C. under 5% CO2 wet atmosphere. The cells were distributed in a 96-well plate, which was not treated (treated only with 0.1% DMSO) or treated with the compounds of examples of the present (0.1 μM to 10 μM). 48 hours later, the cells were fixed in 50% trichloroacetic acid, followed by staining with 1% acetic acid containing 0.4% sulphorodamine B dissolved therein. The non-conjugated dye was removed by washing with 1% acetic acid, and the protein conjugated dye was extracted with 10 mM Tris base (pH 10.5). Then, OD540 was measured with VersaMax microplate reader (Molecular devices, Sunnyvale, Calif., USA). GI50 was calculated by using GraphPad Prism software (GraphPad Software, Inc., San Diego, Calif., USA).
(§6) Based on the results obtained in experimental example 1-1 above, the derivatives wherein R^1 is phenyl were additionally synthesized. The cancer proliferation inhibitory activity of the derivatives was evaluated by the same manner as described in experimental example 1-1.

[5] = molecular target: T2, HDAC 6 (Homo sapiens, UniProt Q9UBN7); test: HDAC enzyme fluorescence assay, HDAC 6; type: biochemical; settings: recombinant HDAC enzyme, Boc-Lys(acetyl)-AMC
T2 sequence (Q9UBN7 1-1215): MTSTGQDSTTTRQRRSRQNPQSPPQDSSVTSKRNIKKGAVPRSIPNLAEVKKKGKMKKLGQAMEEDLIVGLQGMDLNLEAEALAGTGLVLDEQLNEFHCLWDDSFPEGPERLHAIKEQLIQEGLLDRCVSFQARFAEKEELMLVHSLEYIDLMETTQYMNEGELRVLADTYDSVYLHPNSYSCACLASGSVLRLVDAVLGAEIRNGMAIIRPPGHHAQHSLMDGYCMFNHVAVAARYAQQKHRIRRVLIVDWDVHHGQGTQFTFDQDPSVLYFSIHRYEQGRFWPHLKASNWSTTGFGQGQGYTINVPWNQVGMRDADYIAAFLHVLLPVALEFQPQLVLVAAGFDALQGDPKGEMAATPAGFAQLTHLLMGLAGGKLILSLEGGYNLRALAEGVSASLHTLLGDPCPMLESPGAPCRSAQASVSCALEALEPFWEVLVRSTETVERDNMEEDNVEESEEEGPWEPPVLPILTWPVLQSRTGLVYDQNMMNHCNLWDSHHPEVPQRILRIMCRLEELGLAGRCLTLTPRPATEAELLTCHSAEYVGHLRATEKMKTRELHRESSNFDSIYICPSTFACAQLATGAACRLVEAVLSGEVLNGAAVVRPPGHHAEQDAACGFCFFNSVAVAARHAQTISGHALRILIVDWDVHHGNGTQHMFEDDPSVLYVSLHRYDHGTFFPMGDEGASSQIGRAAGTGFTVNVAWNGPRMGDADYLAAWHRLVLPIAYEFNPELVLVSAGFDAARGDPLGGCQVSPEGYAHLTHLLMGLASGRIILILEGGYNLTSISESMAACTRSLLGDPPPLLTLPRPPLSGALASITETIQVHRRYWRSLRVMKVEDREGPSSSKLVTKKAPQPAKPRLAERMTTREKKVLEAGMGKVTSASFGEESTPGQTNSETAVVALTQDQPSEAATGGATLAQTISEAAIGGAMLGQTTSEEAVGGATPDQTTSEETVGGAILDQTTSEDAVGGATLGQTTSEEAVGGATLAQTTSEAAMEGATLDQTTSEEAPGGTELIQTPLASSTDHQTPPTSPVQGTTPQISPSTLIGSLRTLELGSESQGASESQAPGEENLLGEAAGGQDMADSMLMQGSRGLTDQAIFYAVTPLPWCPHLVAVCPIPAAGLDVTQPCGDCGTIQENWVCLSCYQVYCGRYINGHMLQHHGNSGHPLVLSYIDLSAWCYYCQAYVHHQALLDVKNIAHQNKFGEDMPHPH
Procedure: as §1

[6] = tested on: lung cancer cell line (NCl-H23); test: Cancer proliferation inhibitory activity (SRB, GI50), NCI-H23; type: cell-based; settings: Homo sapiens, 48 hours
Source text: as §4, §5, §6

[7] = tested on: renal cancer cell line (ACHN); test: Cancer proliferation inhibitory activity (SRB, GI50), ACHN; type: cell-based; settings: Homo sapiens, 48 hours
Source text: as §4, §5, §6

[8] = molecular target: HDAC 1 (Homo sapiens, UniProt Q13547); test: HDAC enzyme fluorescence assay, HDAC 1; type: biochemical; settings: recombinant HDAC enzyme, Boc-Lys(acetyl)-AMC
HDAC 1, sequence (Q13547 whole entry, species assumed): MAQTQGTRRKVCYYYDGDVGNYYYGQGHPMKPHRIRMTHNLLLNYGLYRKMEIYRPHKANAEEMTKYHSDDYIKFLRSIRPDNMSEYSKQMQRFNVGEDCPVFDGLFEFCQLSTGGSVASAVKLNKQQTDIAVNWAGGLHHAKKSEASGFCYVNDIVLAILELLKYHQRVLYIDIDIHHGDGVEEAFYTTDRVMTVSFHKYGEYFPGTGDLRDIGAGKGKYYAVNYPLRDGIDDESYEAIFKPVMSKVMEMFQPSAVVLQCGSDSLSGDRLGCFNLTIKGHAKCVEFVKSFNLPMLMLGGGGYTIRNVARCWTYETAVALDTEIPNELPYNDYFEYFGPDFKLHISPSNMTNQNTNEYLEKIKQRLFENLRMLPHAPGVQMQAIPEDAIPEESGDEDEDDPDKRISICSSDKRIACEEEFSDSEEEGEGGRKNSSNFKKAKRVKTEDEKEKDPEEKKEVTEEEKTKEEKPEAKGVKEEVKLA
Procedure: as §1

[9] = tested on: prostate cancer cell line (PC-3); test: Cancer proliferation inhibitory activity (SRB, GI50), PC-3; type: cell-based; settings: Homo sapiens, 48 hours
Source text: as §4, §5, §6

[10] = tested on: colorectal cancer cell line (HCT-15); test: Cancer proliferation inhibitory activity (SRB, GI50), HCT-15; type: cell-based; settings: Homo sapiens, 48 hours
Source text: as §4, §5, §6

[11] = tested on: breast cancer cell line (MDA-MB-231); test: Cancer proliferation inhibitory activity (SRB, GI50), MDA-MB-231; type: cell-based; settings: Homo sapiens, 48 hours
Source text: as §4, §5, §6

Row | IC50 ([1]; recombinant HDAC enzyme, Boc-Lys(acetyl)-AMC, read-out: IC50 HDAC 8) | GI50 [4] | IC50 [5] | GI50 [6] | GI50 [7] | IC50 [8] | GI50 [9] | GI50 [10] | GI50 [11] | SMILES | Inhibitory activity (%) HDAC 8 [1] | tumor size / cancer proliferation (FIGS. 2, 3) [2] | changes in weight of mice / visible toxicity (FIG. 1) [3]
1 | – | – | – | – | – | – | – | – | – | C=CCSS/C=C/C[S+]([O-])CC=C (stereo not shown) [Comparative Example 1, E-Ajoene, reference compound] | 73.4% | cancer proliferation was inhibited | only normal weight increases were observed
2 | – | – | – | – | – | – | – | – | – | O=C(CCCCCCC(=O)Nc1ccccc1)NO [SAHA, reference compound] | – | cancer proliferation was inhibited | –
3 | 0.043 µM | 3.25 µM | 49.1 µM | 4.91 µM | 5.42 µM | 3.89 µM | 5.35 µM | 6.48 µM | 3.96 µM | [O-][S+](C/C=C\SSCc1ccccc1)c1ccccc1 (stereo not shown) [Example 6, (Z)-1-benzyl-2-(3-(phenylsulfinyl)prop-1-enyl)disulfane] | 129.1% | – | –
4 | – | 5.8 µM | – | 5.27 µM | 5.82 µM | 1.27 µM | 5.97 µM | 3.65 µM | 3.57 µM | COc1cccc([S+]([O-])C/C=C\SSCc2ccc(Cl)cc2)c1 (stereo not shown) [Example 24, (Z)-1-(4-chlorobenzyl)-2-(3-(3-methoxyphenylsulfinyl)prop-1-enyl)disulfane] | 140.4% | – | –

Row | SMILES | IC50 ([1]; recombinant HDAC enzyme, Boc-Lys(acetyl)-AMC, read-out: IC50 HDAC 8) | GI50 [4] | IC50 [5] | GI50 [6] | GI50 [7] | IC50 [8] | GI50 [9] | GI50 [10] | GI50 [11] | Inhibitory activity (%) HDAC 8 [1] | tumor size / cancer proliferation (FIGS. 2, 3) [2] | changes in weight of mice / visible toxicity (FIG. 1) [3]
5 | C=CCSS/C=C\C[S+]([O-])CC=C (stereo not shown) [Comparative Example 2, Z-Ajoene, reference compound] | – | > 10 µM | – | > 10 µM | > 10 µM | – | > 10 µM | > 10 µM | > 10 µM | 52.5% | cancer proliferation was inhibited | only normal weight increases were observed
